Laboratory results: ChEMBL document CHEMBL1201862, “PubChem BioAssay data set” (2004)
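These data come from cells grown in 96-well plates and exposed to compound for 48 hours at five concentrations. GI50 is the concentration that inhibits growth by half.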 The source made the active and inactive calls. No stated cut-off is given here; in the data, active = GI50 up to about 1.1 µM and inactive = higher.

What was measured:
Experiment in all cases: inhibition of tumour cell growth, NCI panel, 48 h
CAKI-1 = system: CAKI-1
COLO 205 = system: COLO 205
DU-145 = system: DU-145
HCC 2998 = system: HCC 2998
HOP-62 = system: HOP-62
HT-29 = system: HT-29
KM12 = system: KM12
LOX IMVI = system: LOX IMVI
MOLT-4 = system: MOLT-4
NCI-H460 = system: NCI-H460
NCI/ADR-RES = system: NCI/ADR-RES
SF-268 = system: SF-268
SK-MEL-28 = system: SK-MEL-28
SK-MEL-5 = system: SK-MEL-5
SN12C = system: SN12C
SNB-75 = system: SNB-75
U-251 = system: U-251
MCF7 = system: MCF7
NCI-H522 = system: NCI-H522

Measured: GI50

CCOc1cc(/C=N\N(C)C)cc(/C=N\N(C)C)c1O
inactive: CAKI-1 18.3 µM | COLO 205 18.7 µM | DU-145 > 100 µM | HCC 2998 91.2 µM | HOP-62 50.8 µM | HT-29 42.3 µM | KM12 > 100 µM | LOX IMVI 30.5 µM | MOLT-4 61 µM | NCI-H460 30.1 µM | NCI/ADR-RES 35.8 µM | SF-268 19.8 µM | SK-MEL-28 35.4 µM | SK-MEL-5 22.1 µM | SN12C 54 µM | SNB-75 28.8 µM | U-251 33.7 µM

NC(=O)c1sc2nc3ccccc3n2c1N
inactive: CAKI-1 92.7 µM | COLO 205 > 100 µM | DU-145 84.9 µM | HCC 2998 86.7 µM | HOP-62 32.8 µM | HT-29 > 100 µM | LOX IMVI 36.1 µM | MCF7 > 100 µM | MOLT-4 > 100 µM | NCI/ADR-RES > 100 µM | SF-268 47.2 µM | SK-MEL-28 > 100 µM | SK-MEL-5 > 100 µM | SNB-75 29.4 µM | U-251 28.2 µM

O=C(O)c1cccc(S(=O)(=O)NN2C(=O)CSC2c2c(O)ccc3ccccc23)c1 (stereo not drawn)
inactive: CAKI-1 25.5 µM | COLO 205 38 µM | DU-145 44.7 µM | HCC 2998 52.6 µM | HOP-62 47 µM | HT-29 29.9 µM | KM12 41.3 µM | LOX IMVI 27.4 µM | MOLT-4 19 µM | NCI-H460 34.7 µM | NCI-H522 27.8 µM | NCI/ADR-RES 22.1 µM | SF-268 32.5 µM | SK-MEL-28 26.4 µM | SK-MEL-5 21 µM | SN12C 36.9 µM | SNB-75 30.6 µM | U-251 34.3 µM

COc1ccc(C2OCCN2C)cc1 (stereo not drawn)
inactive: CAKI-1 > 100 µM | COLO 205 > 100 µM | HOP-62 > 100 µM | HT-29 > 100 µM | KM12 > 100 µM | LOX IMVI 58.2 µM | MCF7 > 100 µM | MOLT-4 > 100 µM | NCI-H460 87.1 µM | NCI-H522 > 100 µM | NCI/ADR-RES > 100 µM | SF-268 > 100 µM | SK-MEL-5 > 100 µM | SNB-75 36.9 µM | U-251 > 100 µM

N=C(CC/C(N)=N/O)NO
inactive: CAKI-1 > 100 µM | DU-145 > 100 µM | HCC 2998 > 100 µM | HOP-62 > 100 µM | HT-29 > 100 µM | KM12 > 100 µM | LOX IMVI > 100 µM | MOLT-4 > 100 µM | NCI-H460 > 100 µM | NCI-H522 > 100 µM | NCI/ADR-RES > 100 µM | SF-268 > 100 µM | SK-MEL-28 > 100 µM | SK-MEL-5 > 100 µM | SN12C > 100 µM | SNB-75 > 100 µM | U-251 > 100 µM

COC1C(OC(=O)c2ccc(C)[nH]2)C(O)C(Oc2ccc3c(O)c(NC(=O)c4ccc(O)c(CC=C(C)C)c4)c(=O)oc3c2Cl)OC1(C)C (stereo not drawn)
inactive: CAKI-1 18.7 µM | COLO 205 15.9 µM | DU-145 31 µM | HCC 2998 18.1 µM | HOP-62 15.5 µM | HT-29 15 µM | KM12 12.5 µM | LOX IMVI 18.1 µM | MCF7 18.4 µM | MOLT-4 16.2 µM | NCI-H460 21.2 µM | NCI-H522 13.2 µM | SF-268 17.3 µM | SK-MEL-28 16.3 µM | SK-MEL-5 19.7 µM | SN12C 20.7 µM | SNB-75 19.1 µM | U-251 12.8 µM

COC(=O)[C@@H]1[C@H](O)CCC2=C(CC(=O)c3ccoc3)[C@H](C)CC[C@]21C
inactive: CAKI-1 > 50 µM | COLO 205 > 50 µM | HCC 2998 > 50 µM | HOP-62 > 50 µM | HT-29 44.3 µM | KM12 36.1 µM | LOX IMVI 27.5 µM | MCF7 26.4 µM | NCI-H460 23.9 µM | NCI/ADR-RES 22.2 µM | SK-MEL-28 > 50 µM | SK-MEL-5 18.1 µM | SN12C > 50 µM | SNB-75 16.7 µM | U-251 41.2 µM

CN1C(=O)C(=Cc2ccc(Br)cc2)C(=O)N(C)C1=O
inactive: CAKI-1 > 100 µM | COLO 205 > 100 µM | DU-145 > 100 µM | HCC 2998 > 100 µM | HOP-62 > 100 µM | KM12 > 100 µM | LOX IMVI > 100 µM | MCF7 > 100 µM | MOLT-4 14.1 µM | NCI-H460 > 100 µM | NCI/ADR-RES > 100 µM | SF-268 > 100 µM | SK-MEL-28 > 100 µM | SK-MEL-5 > 100 µM | SNB-75 > 100 µM | U-251 > 100 µM

Nc1ncnc2c1ncn2C1OC(COC2C(CO)OC(OC(C(=O)O)C(O)C(OP(=O)(O)O)C(O)C(=O)O)C(O)C2O)C(O)C1O (stereo not drawn)
inactive: CAKI-1 > 100 µM | COLO 205 > 100 µM | HCC 2998 > 100 µM | HOP-62 > 100 µM | HT-29 > 100 µM | KM12 > 100 µM | LOX IMVI > 100 µM | MCF7 > 100 µM | MOLT-4 > 100 µM | NCI-H460 > 100 µM | NCI-H522 59.3 µM | SF-268 > 100 µM | SK-MEL-28 > 100 µM | SK-MEL-5 > 100 µM | SNB-75 > 100 µM | U-251 > 100 µM

CC1(C)[N+]([O-])=[N+]([O-])C1(C)Br (stereo not drawn)
inactive: CAKI-1 > 100 µM | COLO 205 > 100 µM | HCC 2998 > 100 µM | HOP-62 > 100 µM | HT-29 > 100 µM | KM12 > 100 µM | LOX IMVI > 100 µM | MCF7 > 100 µM | MOLT-4 > 100 µM | NCI-H460 > 100 µM | NCI-H522 > 100 µM | NCI/ADR-RES 65.8 µM | SF-268 > 100 µM | SK-MEL-28 > 100 µM | SK-MEL-5 > 100 µM | SN12C > 100 µM | SNB-75 > 100 µM | U-251 > 100 µM

CCOC(=O)NC
inactive: CAKI-1 > 100 µM | COLO 205 > 100 µM | DU-145 > 100 µM | HCC 2998 > 100 µM | HOP-62 > 100 µM | HT-29 > 100 µM | KM12 > 100 µM | LOX IMVI > 100 µM | MCF7 > 100 µM | NCI-H460 > 100 µM | NCI/ADR-RES > 100 µM | SF-268 > 100 µM | SK-MEL-28 > 100 µM | SK-MEL-5 > 100 µM | SN12C > 100 µM | SNB-75 > 100 µM | U-251 > 100 µM

COC(=O)C1CC2CC(=NNC(N)=O)CC2C1 (stereo not drawn)
inactive: CAKI-1 > 100 µM | COLO 205 > 100 µM | HCC 2998 > 100 µM | HOP-62 > 100 µM | HT-29 > 100 µM | KM12 > 100 µM | LOX IMVI > 100 µM | MOLT-4 > 100 µM | NCI-H460 > 100 µM | NCI-H522 > 100 µM | SF-268 > 100 µM | SK-MEL-28 > 100 µM | SK-MEL-5 > 100 µM | SN12C > 100 µM | SNB-75 > 100 µM | U-251 > 100 µM
